This note sets out measurements from PubChem BioAssay (NCI).

Test systems include LOX IMVI melanoma; NCI-H23 lung; OVCAR-4 ovarian; MOLT-4 leukemia; SK-MEL-2 melanoma; OVCAR-3 ovarian; MALME-3M melanoma; MDA-MB-435; NCI-H226 lung; HOP-92 NSCLC.
What all share (experiment): inhibition of tumour cell growth, NCI panel, 48 h

The structures appear in SMILES notation.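 48-hour exposure; five concentrations; linearly interpolated endpoints. GI50: concentration for 50% inhibition of growth. TGI: total growth inhibition.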

In the case of `CCS(=O)(=O)N1CCN(c2ccc(Nc3ncc(C(N)=O)c(NC4CC4)n3)cc2)CC1`, the GI50 is 3.07 µM in the test with LOX IMVI melanoma; 5.46 µM in the test with NCI-H23 lung; 12.1 µM in the test with OVCAR-4 ovarian; 2.7 µM in the test on MOLT-4 leukemia; 4.62 µM in the test on SK-MEL-2 melanoma; 5.73 µM in the test with OVCAR-3 ovarian. Besides, the GI50 is 20 µM in the test on MALME-3M melanoma, 5.6 µM with MDA-MB-435, 7.12 µM with NCI-H226 lung and 4.9 µM in the test on HOP-92 NSCLC. Further, the TGI with LOX IMVI melanoma was above 100 µM; with NCI-H23 lung, above 100 µM; with OVCAR-4 ovarian it was above 100 µM; with MOLT-4 leukemia, 16.5 µM; in the test with SK-MEL-2 melanoma it was 21.4 µM; with OVCAR-3 ovarian it was 31.4 µM. For the same compound, the TGI in the test on MALME-3M melanoma is 85.2 µM; in the test with MDA-MB-435 it was above 100 µM; in the test with NCI-H226 lung, 35.9 µM; in the test on HOP-92 NSCLC it was above 100 µM.
Consider `O=C(COc1cccc(/C=C2\Oc3ccc4ccccc4c3C2=O)c1)c1ccc([N+](=O)[O-])cc1`, for which the GI50 in the test with LOX IMVI melanoma was 7.5 µM; in the test on NCI-H23 lung it was 21 µM; in the test with OVCAR-4 ovarian it was 20 µM; in the test with MOLT-4 leukemia, 13.3 µM; in the test on SK-MEL-2 melanoma, above 100 µM; in the test on OVCAR-3 ovarian, 14.9 µM. Besides, the GI50 with MALME-3M melanoma is 14.7 µM; in the test on MDA-MB-435, 28.9 µM; in the test with NCI-H226 lung, 16.1 µM; with HOP-92 NSCLC, 12.9 µM. In addition, the TGI in the test on LOX IMVI melanoma was 20.5 µM; in the test on NCI-H23 lung, 80.8 µM; in the test with OVCAR-4 ovarian, 60.3 µM; in the test on MOLT-4 leukemia, 38.6 µM; in the test on SK-MEL-2 melanoma, above 100 µM; in the test with OVCAR-3 ovarian, 28 µM. In addition, the TGI is 43 µM in the test on MALME-3M melanoma, above 100 µM in the test on MDA-MB-435, 37.8 µM in the test with NCI-H226 lung and 35.9 µM in the test on HOP-92 NSCLC.
`C/C(=N\NC(=S)N1CCN(c2ccccn2)CC1)c1cccc2cccnc12`: the TGI in the test on LOX IMVI melanoma is above 100 µM; with NCI-H23 lung, above 100 µM; with OVCAR-4 ovarian, above 100 µM; with MOLT-4 leukemia it was above 62.2 µM; in the test on SK-MEL-2 melanoma, 8.56 µM; with OVCAR-3 ovarian, above 29 µM. Besides, the TGI with MALME-3M melanoma is above 100 µM; in the test on MDA-MB-435, above 100 µM; with NCI-H226 lung, 38.4 µM; in the test on HOP-92 NSCLC it was 52.3 µM.
Regarding `CC1(C)CC[C@]2(CO)CC[C@]3(C)C(=CC[C@@H]4[C@@]5(C)CCNCC(C)(C)[C@@H]5CC[C@]43C)[C@@H]2C1`, the GI50 was 2.45 µM in the test on LOX IMVI melanoma; 12.5 µM in the test on NCI-H23 lung; 7.66 µM with OVCAR-4 ovarian; 4.41 µM with MOLT-4 leukemia; 2.32 µM in the test with SK-MEL-2 melanoma; 6.68 µM with OVCAR-3 ovarian. Moreover, the GI50 is 1.69 µM with MALME-3M melanoma, 3.01 µM in the test on MDA-MB-435, 16.8 µM in the test with NCI-H226 lung and 1.4 µM in the test with HOP-92 NSCLC. Also, the TGI in the test with LOX IMVI melanoma was found to be 5.52 µM; in the test on NCI-H23 lung it was 26.9 µM; in the test on OVCAR-4 ovarian it was 24 µM; in the test on MOLT-4 leukemia, 18.7 µM; with SK-MEL-2 melanoma it was 5.57 µM; in the test with OVCAR-3 ovarian it was 27.7 µM. Besides, the TGI is 3.71 µM in the test on MALME-3M melanoma, 8.9 µM in the test with MDA-MB-435, 35.5 µM in the test with NCI-H226 lung and 4.14 µM in the test with HOP-92 NSCLC.
Take `COc1ccc2c(c1)C(=O)c1c-2n(CCCCl)c(=O)c2cc(N)ccc12`: the GI50 is 98.2 µM in the test with LOX IMVI melanoma; above 100 µM with NCI-H23 lung; above 96.7 µM in the test on OVCAR-4 ovarian; above 54.6 µM in the test with MOLT-4 leukemia; above 100 µM in the test on SK-MEL-2 melanoma; above 100 µM in the test on OVCAR-3 ovarian. The GI50 is above 100 µM in the test on MALME-3M melanoma, above 100 µM in the test on MDA-MB-435, above 80.7 µM in the test with NCI-H226 lung and 21.2 µM with HOP-92 NSCLC. For the same compound, the TGI in the test on LOX IMVI melanoma, in the test on NCI-H23 lung, in the test on OVCAR-4 ovarian, in the test with MOLT-4 leukemia, in the test on SK-MEL-2 melanoma and in the test on OVCAR-3 ovarian was above 100 µM each time. In addition, the TGI in the test with MALME-3M melanoma, in the test on MDA-MB-435, in the test with NCI-H226 lung and in the test on HOP-92 NSCLC was above 100 µM in each case.
As for `O=c1[nH]c2ccccc2n1C1CCN(CCOc2ccccc2)CC1`, the GI50 in the test on LOX IMVI melanoma was 15.5 µM; in the test on NCI-H23 lung, 30.5 µM; in the test with OVCAR-4 ovarian, 5.86 µM; in the test on MOLT-4 leukemia it was 48 µM; in the test on SK-MEL-2 melanoma, 32.8 µM; in the test with OVCAR-3 ovarian it was 14 µM. Also, the GI50 in the test on MALME-3M melanoma is 51.5 µM; in the test on MDA-MB-435, 6.75 µM; in the test on NCI-H226 lung it was 30.1 µM; with HOP-92 NSCLC, 22.9 µM. Besides, the TGI in the test with LOX IMVI melanoma, in the test with NCI-H23 lung, in the test with OVCAR-4 ovarian, with MOLT-4 leukemia, with SK-MEL-2 melanoma and in the test on OVCAR-3 ovarian was above 100 µM in each case. In addition, the TGI in the test with MALME-3M melanoma is above 100 µM; in the test on MDA-MB-435, 72.3 µM; in the test with NCI-H226 lung, above 100 µM; in the test on HOP-92 NSCLC, above 100 µM.
Take `CC(=N\O)/C(C)=N/O.CC(=N\O)/C(C)=N/O.[Fe].[NH2-].c1c[nH]cn1`: the GI50 in the test with LOX IMVI melanoma was 3.17 µM; with OVCAR-4 ovarian it was above 100 µM; in the test on MOLT-4 leukemia it was above 100 µM; with SK-MEL-2 melanoma it was above 100 µM; in the test on OVCAR-3 ovarian, above 100 µM; in the test on MALME-3M melanoma, above 100 µM. Besides, the GI50 with MDA-MB-435 was above 100 µM; in the test with NCI-H226 lung it was above 100 µM; in the test with HOP-92 NSCLC, 28.6 µM. The TGI in the test with LOX IMVI melanoma was 13.2 µM; in the test on OVCAR-4 ovarian it was above 100 µM; in the test on MOLT-4 leukemia it was above 100 µM; in the test on SK-MEL-2 melanoma, above 100 µM; in the test on OVCAR-3 ovarian it was above 100 µM; with MALME-3M melanoma, above 100 µM. The TGI in the test on MDA-MB-435, in the test on NCI-H226 lung and with HOP-92 NSCLC was above 100 µM each time.
Take `Cn1cc(-c2nc(-c3cn(C)c4ncccc34)cs2)c2ccccc21`: the GI50 was 1.27 µM in the test on LOX IMVI melanoma; 3.14 µM in the test on NCI-H23 lung; 4.65 µM in the test on MOLT-4 leukemia; 4.5 µM with SK-MEL-2 melanoma; 0.414 µM in the test on OVCAR-3 ovarian; 0.468 µM in the test on MALME-3M melanoma. Further, the GI50 was 0.292 µM in the test on MDA-MB-435, 2.29 µM in the test on NCI-H226 lung and 1.68 µM with HOP-92 NSCLC. Besides, the TGI in the test with LOX IMVI melanoma is above 100 µM; in the test on NCI-H23 lung it was 23.9 µM; with MOLT-4 leukemia it was above 100 µM; with SK-MEL-2 melanoma, 68.7 µM; with OVCAR-3 ovarian, 1.71 µM; with MALME-3M melanoma it was 5.64 µM. The TGI is 1.15 µM in the test on MDA-MB-435, 14.4 µM in the test with NCI-H226 lung and 9.39 µM in the test with HOP-92 NSCLC.
